“Also recorded” adds a separate entry of the source. Each block holds one compound with its values, some of them ahead of it.
Columns and labels:
[1] = system: a-chymotrypsin or pronase; experiment: Protease sensitivity in liquid (spent culture medium or purified bacteriocin), drop test; type: in vitro ADME; settings: purified bacteriocin treated prior to sample preparation
Procedure: Determination of protease sensitivity of bacteriocin-like activity in liquid cultures was carried out as follows: 10 μl of a stock solution (10 mg/ml) of each protease was added to 100 μl of either spent culture medium or the purified bacteriocin, and incubated at 37° C. for 2 hours, after which activity was assessed using a drop test (Tagg et al., 1976). Controls consisted of protease only (1 in 10 dilution) spotted directly onto an overlay containing the indicator organism.
The purity of the peptide was assessed using Triacine-sodium-dodecyl-sulphate-polyacrylamide gel electrophoresis analysis followed by silver staining. […] Protease sensitivity of the isolated bacteriocin was identical to the protease sensitivity of the inhibitor produced in the deferred plate test (see above).

[2] = system: indicator strain of B. fibrisolvens; experiment: Drop (spot) test and diffusion well assay of inhibitory activity; type: cell-based, Butyrivibrio fibrisolvens; settings: spot testing, peptide purified by reverse phase chromatography
Procedure: Isolates found to produce bacteriocin-like activity using the deferred plating technique were tested for the production of bacteriocin-like activity in liquid cultures. Briefly, following overnight growth in L-10 medium, a 1.0 ml sample of the culture was centrifuged to remove the cells, and a 100 μl aliquot dropped onto a sterile petri dish and sterilised by exposure to shortwave ultraviolet light for a five minute period. Bacteriocin-like activity within the uv-sterilized spent culture fluid was assayed using both a drop test and diffusion well assay (Tagg et al., 1976). All steps were carried out under anerobic conditions in a glove box.
The active component was purified by FPLC ([…] System, Pharmacia) using reverse phase chromatography. All steps were carried out at 4° C. Solvents consisted of dH2 O (buffer A) and 2-propanol (buffer B), both of which contained 0.1% trifluoroacetic acid. A 0.5 ml aliquot of the crude bacteriocin preparation containing […] was injected onto a Resource RPC 3.0 ml column (Pharmacia), washed with two column volumes of buffer A, and eluted from the column with a gradient from 100% buffer A to 100% buffer B, at a flow rate of 1.0 ml/minute. The elution was monitored at 206 nm. […]

indicator = experiment: Effect of detergents on the indicator; type: cell-based
Procedure: Further increases in carbohydrate beyond 2% (w/v) had no further effect on enhancing production in liquid culture. As several bacteriocins are known to be cell associated (Jack et al., 1995), bound activity was assayed for by washing pelleted cells with various detergents (Triton X-100, Tween 80, Tween 20). […] However, both Tween 80 and Tween 20 appeared to have no detrimental efLect on the indicator at levels of up to 1.0% (v/v).

Compound: Butyrivibriocin AR10
- effect of a-chymotrypsin treatment on inhibitory activity [1]: completely eliminated inhibitory activity
- effect of pronase treatment on inhibitory activity [1]: completely eliminated inhibitory activity
- inhibitory activity of the purified peptide [2]: inhibitory activity; also recorded: inhibitory to the growth

Compound: Triton X-100
- level very detrimental to the indicator (indicator; detergent): less than 0.1 % (v/v)

- level with no detrimental effect on the indicator (indicator): up to 1.0 % (v/v)
Compound: CCCCCCCC/C=C\CCCCCCCC(=O)OCCOCC(OCCO)C1OCC(OCCO)C1OCCO (centres unmarked) [Tween 80]

— US6255080A, “Bacteriocins produced by ruminal bacteria” (priority 1998, dated 2001)
